Earlier results in patent US6683094B2, “Antihistaminic piperidine derivatives and intermediates for the preparation thereof” (Aventis Pharmaceuticals Inc., priority 1998, dated 2004).

Conditions: to two primary metabolites (fexofenadine and an inactive dealkylated metabolite)

In the case of CC(C)(C)c1ccc(C(O)CCCN2CCC(C(O)(c3ccccc3)c3ccccc3)CC2)cc1 (stereo not drawn) [Terfenadine, α-[4-(1,1-dimethylethyl)phenyl]-4-(hydroxydiphenylmethyl)-1-piperidinebutanol], the first pass metabolism is listed as 99%.
